Patent publication US11098052B2, “4-azapodophylotoxins compounds” (Arizona Board of Regents on behalf of Arizona State …, priority 2016, dated 2021)
Values after ≈ are worked out from the molar mass of the structure shown. Where two headings read alike, the source gives them in different places.

Key:
SF-268 (CNS) = experiment: Human cancer cell growth inhibition, sulforhodamine B assay, SF-268; format: cell-based; details: read-out: Growth Inhibition of Human Cancer Cell Lines (GI50), SF-268
Procedure: (§1) Cancer Cell Line Procedures. The human cancer cell growth inhibition data were determined using the standard sulforhodamine B assay of the US National Cancer Institute as previously described.^35 In short, cells in a 5% fetal bovine serum/RPMI1640 medium were inoculated in 96-well plates and incubated for 24 h. Next, serial dilutions of the samples were added. After 48 h, the plates were fixed with trichloroacetic acid, stained with sulforhodamine B, and read with an automated microplate reader. A growth inhibition of 50% (GI50 or the drug concentration causing a 50% reduction in the net protein increase) was determined from optical density data employing Immunosoft® software.

[1] = test system: P388 murine lymphocytic leukemia cell line; experiment: Murine P388 lymphocytic leukemia inhibitory activity; format: cell-based; details: Mus musculus
KM20L2 (colon) = experiment: Human cancer cell growth inhibition, sulforhodamine B assay, KM20L2; format: cell-based; details: read-out: Growth Inhibition of Human Cancer Cell Lines (GI50), KM20L2
Procedure: as §1

MCF-7 (breast) = experiment: Human cancer cell growth inhibition, sulforhodamine B assay, MCF-7; format: cell-based; details: read-out: Growth Inhibition of Human Cancer Cell Lines (GI50), MCF-7
Procedure: as §1

BXPC-3 (pancreas) = experiment: Human cancer cell growth inhibition, sulforhodamine B assay, BXPC-3; format: cell-based; details: read-out: Growth Inhibition of Human Cancer Cell Lines (GI50), BXPC-3
Procedure: as §1

DU-145 (prostate) = experiment: Human cancer cell growth inhibition, sulforhodamine B assay, DU-145; format: cell-based; details: read-out: Growth Inhibition of Human Cancer Cell Lines (GI50), DU-145
Procedure: as §1

NCI-H460 (lung) = experiment: Human cancer cell growth inhibition, sulforhodamine B assay, NCI-H460; format: cell-based; details: read-out: Growth Inhibition of Human Cancer Cell Lines (GI50), NCI-H460
Procedure: as §1

[2] = SF-268 CNS, 48 h, sulforhodamine B
[3] = P388 cell line, read-out: Murine P388 Lymphocytic Leukemia Inhibitory Activity (ED50)
[4] = KM-20L2, KM20L2 colon, 48 h, sulforhodamine B
[5] = MCF7, MCF-7 breast, 48 h, sulforhodamine B
[6] = BXPC-3 pancreas, 48 h, sulforhodamine B
[7] = DU-145 prostate, 48 h, sulforhodamine B
[8] = NCI-H460 lung, 48 h, sulforhodamine B
[9] = P388, read-out: Murine P388 Lymphocytic Leukemia Inhibitory Activity (ED50)

Compound | melting point | GI50 (SF-268 (CNS); [2]) [µg/mL] | IC50 [1, 3] [µg/mL] | GI50 (KM20L2 (colon); [4]) [µg/mL] | GI50 (MCF-7 (breast); [5]) [µg/mL] | GI50 (BXPC-3 (pancreas); [6]) [µg/mL] | GI50 (DU-145 (prostate); [7]) [µg/mL] | GI50 (NCI-H460 (lung); [8]) [µg/mL] | GI50 (SF-268 (CNS); SF-268, 48 h) [µg/mL] | IC50 [1, 9] [µg/mL] | GI50 (KM20L2 (colon); KM-20L2, 48 h) [µg/mL] | GI50 (MCF-7 (breast); MCF7, 48 h) [µg/mL] | GI50 (BXPC-3 (pancreas); BXPC-3, 48 h) [µg/mL] | GI50 (DU-145 (prostate); DU-145, 48 h) [µg/mL] | GI50 (NCI-H460 (lung); NCI-H460, 48 h) [µg/mL]
COc1ccc(C2C3=C(COC3=O)Nc3cc(OC)c(OC)c(OC)c32)cc1O[Si](C)(C)C(C)(C)C (stereo not drawn) | 169 to 171 °C |  |  |  |  |  |  |  |  |  |  |  |  |  | 
COc1cc(C2C3=C(COC3=O)N(CCO)c3cc4c(cc32)OCO4)cc(OC)c1OC (stereo not drawn) [Compound 13, 6,7-Methylenedioxy-4-(2-hydroxy-ethyl)-9-(3,4,5-trimethoxyphenyl)-4,9-dihydro-3H-furo[3,4-b]quinolin-1-one] |  | 0.41 (≈ 0.929 µM) | 2 (≈ 4.53 µM) | 0.52 (≈ 1.18 µM) | 0.37 (≈ 0.838 µM) | 0.6 (≈ 1.36 µM) | 1.3 (≈ 2.94 µM) | 0.58 (≈ 1.31 µM) |  |  |  |  |  |  | 
COc1cc(C2C3=C(COC3=O)N(CCCO)c3cc4c(cc32)OCO4)cc(OC)c1OC (stereo not drawn) [Compound 14, 6,7-Methylenedioxy-4-(3-hydroxy-propyl)-9-(3,4,5-trimethoxyphenyl)-4,9-dihydro-3H-furo[3,4-b]quinolin-1-one] | 269 to 272 °C (dec.) |  |  |  |  |  |  |  | 0.36 (≈ 0.79 µM) | 0.28 (≈ 0.615 µM) | 0.38 (≈ 0.834 µM) | 0.34 (≈ 0.746 µM) | 0.48 (≈ 1.05 µM) | 0.49 (≈ 1.08 µM) | 0.33 (≈ 0.725 µM)
COc1cc(C2C3=C(COC3=O)Nc3cc(OC)c(OC)c(OC)c32)cc(OC)c1OC (stereo not drawn) [Compound 15, 6,7,8-Trimethoxy-9-(3,4,5-trimethoxyphenyl)-4,9-dihydro-3H-furo[3,4-b]quinolin-1-one] | 137 to 139 °C |  |  |  |  |  |  |  | 3.6 (≈ 8.12 µM) | 1.3 (≈ 2.93 µM) |  | 1.7 (≈ 3.83 µM) | 5.6 (≈ 12.6 µM) | 3.3 (≈ 7.44 µM) | 3.6 (≈ 8.12 µM)
COc1cc(C2C3=C(COC3=O)Nc3cc(OC)c(OC)c(OC)c32)cc(Br)c1OC (stereo not drawn) [Compound 15a, 6,7,8-Trimethoxy-9-(3-bromo-4,5-trimethoxyphenyl)-4,9-dihydro-3H-furo[3,4-b]quinolin-1-one] | 175 to 177 °C |  |  |  |  |  |  |  | 0.11 (≈ 0.223 µM) | 0.11 (≈ 0.223 µM) |  | 0.12 (≈ 0.244 µM) | 0.56 (≈ 1.14 µM) | 0.42 (≈ 0.853 µM) | 0.35 (≈ 0.711 µM)
COc1ccc(C2C3=C(COC3=O)Nc3cc(OC)c(OC)c(OC)c32)cc1O (stereo not drawn) [Compound 15c, 6,7,8-Trimethoxy-9-(3-hydroxy-4-methoxyphenyl)-4,9-dihydro-3H-furo[3,4-b]quinolin-1-one] |  |  |  |  |  |  |  |  | 7.3 (≈ 18.3 µM) | 0.78 (≈ 1.95 µM) |  | 7 (≈ 17.5 µM) | 6.5 (≈ 16.3 µM) | > 10 | 10.1 (≈ 25.3 µM)
O=C1OCC2=C1C(c1cccc3c1OCO3)c1cc3c(cc1N2)OCO3 (stereo not drawn) [Compound 15d, 6,7-Methylenedioxy-9-(2,3-methylenedioxyphenyl)-4,9-dihydro-3H-furo[3,4-b]quinolin-1-one] | 324 to 327 °C |  |  |  |  |  |  |  | 0.0089 (≈ 0.0253 µM) | 0.17 (≈ 0.484 µM) |  | 0.0039 (≈ 0.0111 µM) | 0.065 (≈ 0.185 µM) | 0.041 (≈ 0.117 µM) | 0.021 (≈ 0.0598 µM)
COc1cc(C2C3=C(COC3=O)N(C)c3cc4c(cc32)OCO4)cc(OC)c1OC (stereo not drawn) [Compound 16, 6,7-Methylenedioxy-4-methyl-9-(3,4,5-trimethoxyphenyl)-4,9-dihydro-3H-furo[3,4-b]quinolin-1-one] |  |  |  |  |  |  |  |  | 0.029 (≈ 0.0705 µM) | 0.027 (≈ 0.0656 µM) | 0.032 (≈ 0.0778 µM) | 0.034 (≈ 0.0826 µM) | 0.049 (≈ 0.119 µM) | 0.026 (≈ 0.0632 µM) | 0.032 (≈ 0.0778 µM)
COc1cc(C2C3=C(COC3=O)N(C3CCC3)c3cc4c(cc32)OCO4)cc(OC)c1OC (stereo not drawn) [Compound 17, 6,7-Methylenedioxy-4-(cyclobutyl)-9-(3,4,5-trimethoxyphenyl)-4,9-dihydro-3H-furo[3,4-b]quinolin-1-one] | 224 to 226 °C |  |  |  |  |  |  |  | 0.026 (≈ 0.0576 µM) | 0.24 (≈ 0.532 µM) | 0.032 (≈ 0.0709 µM) | 0.026 (≈ 0.0576 µM) | 0.04 (≈ 0.0886 µM) | 0.047 (≈ 0.104 µM) | 0.028 (≈ 0.062 µM)
COc1cc(C2C3=C(COC3=O)N(C3CCCC3)c3cc4c(cc32)OCO4)cc(OC)c1OC (stereo not drawn) [Compound 18, 6,7-Methylenedioxy-4-(cyclopentyl)-9-(3,4,5-trimethoxyphenyl)-4,9-dihydro-3H-furo[3,4-b]quinolin-1-one] | 221 to 223 °C |  |  |  |  |  |  |  | 0.062 (≈ 0.133 µM) | 15.3 (≈ 32.9 µM) | 0.12 (≈ 0.258 µM) | 0.045 (≈ 0.0967 µM) | 0.083 (≈ 0.178 µM) | 0.27 (≈ 0.58 µM) | 0.16 (≈ 0.344 µM)
COc1cc(C2C3=C(COC3=O)N(C3CCCCC3)c3cc4c(cc32)OCO4)cc(OC)c1OC (stereo not drawn) [Compound 19, 6,7-Methylenedioxy-4-(cyclohexyl)-9-(3,4,5-trimethoxyphenyl)-4,9-dihydro-3H-furo[3,4-b]quinolin-1-one] | 235 to 237 °C |  |  |  |  |  |  |  | 0.066 (≈ 0.138 µM) | 3.4 (≈ 7.09 µM) | 0.24 (≈ 0.5 µM) | 0.052 (≈ 0.108 µM) | 0.17 (≈ 0.355 µM) | 0.27 (≈ 0.563 µM) | 0.27 (≈ 0.563 µM)
COc1cc(C2C3=C(COC3=O)N(CCN3CCCCC3)c3cc4c(cc32)OCO4)cc(OC)c1OC (stereo not drawn) [Compound 21, 6,7-Methylenedioxy-4-(2-piperidin-1-yl-ethyl)-9-(3,4,5-trimethoxyphenyl)-4,9-dihydro-3H-furo[3,4-b]quinolin-1-one] | 170 °C (dec.) | > 10 | 1.7 (≈ 3.34 µM) | > 10 | > 10 | 4.4 (≈ 8.65 µM) | > 10 | > 10 |  |  |  |  |  |  | 
COc1cc(C2C3=C(COC3=O)N(CCN3CCOCC3)c3cc4c(cc32)OCO4)cc(OC)c1OC (stereo not drawn) [Compound 22, 6,7-Methylenedioxy-4-(2-morpholin-4-yl-ethyl)-9-(3,4,5-trimethoxyphenyl)-4,9-dihydro-3H-furo[3,4-b]quinolin-1-one] | 186 to 189 °C |  |  |  |  |  |  |  | 2.6 (≈ 5.09 µM) | 2.6 (≈ 5.09 µM) | 2.5 (≈ 4.9 µM) | 0.89 (≈ 1.74 µM) | 3.5 (≈ 6.86 µM) | 2 (≈ 3.92 µM) | 3 (≈ 5.88 µM)
COc1cc(C2C3=C(COC3=O)N(Cc3ccc(F)cc3)c3cc4c(cc32)OCO4)cc(OC)c1OC (stereo not drawn) [Compound 23, 6,7-Methylenedioxy-4-(4-fluoro-benzyl)-9-(3,4,5-trimethoxyphenyl)-4,9-dihydro-3H-furo[3,4-b]quinolin-1-one] | 246 to 247 °C |  |  |  |  |  |  |  | 0.03 (≈ 0.0593 µM) | 1.9 (≈ 3.76 µM) | 0.033 (≈ 0.0653 µM) | 0.037 (≈ 0.0732 µM) | 0.046 (≈ 0.091 µM) | 0.047 (≈ 0.093 µM) | 0.031 (≈ 0.0613 µM)
COc1cc(C2C3=C(COC3=O)N(CCc3ccccn3)c3cc4c(cc32)OCO4)cc(OC)c1OC (stereo not drawn) [Compound 24, 6,7-Methylenedioxy-4-(2-pyridin-2-yl-ethyl)-9-(3,4,5-trimethoxyphenyl)-4,9-dihydro-3H-furo[3,4-b]quinolin-1-one] | 239 to 241 °C |  |  |  |  |  |  |  | 0.33 (≈ 0.657 µM) | 2.5 (≈ 4.97 µM) | 0.29 (≈ 0.577 µM) | 0.32 (≈ 0.637 µM) | 0.38 (≈ 0.756 µM) | 0.42 (≈ 0.836 µM) | 0.34 (≈ 0.677 µM)
COc1cc(C2C3=C(COC3=O)Nc3cc4c(cc32)OCO4)cc(OC)c1O (stereo not drawn) [Compound 29, 6,7-Methylenedioxy-9-(4-hydroxy-3,5-dimethoxy-phenyl)-4,9-dihydro-3H-furo[3,4-b]quinolin-1-one] |  |  |  |  |  |  |  |  | 0.026 (≈ 0.0678 µM) | 0.028 (≈ 0.073 µM) | 0.032 (≈ 0.0835 µM) | 0.025 (≈ 0.0652 µM) | 0.028 (≈ 0.073 µM) | 0.033 (≈ 0.0861 µM) | 0.027 (≈ 0.0704 µM)
COc1cc(C2C3=C(COC3=O)N(C3CCCC3)c3cc4c(cc32)OCO4)cc(OC)c1O (stereo not drawn) [Compound 30, 6,7-Methylenedioxy-4-(cyclopentyl)-9-(4-hydroxy-3,5-dimethoxy-phenyl)-4,9-dihydro-3H-furo[3,4-b]quinolin-1-one] |  |  |  |  |  |  |  |  | 0.39 (≈ 0.864 µM) | 30.3 (≈ 67.1 µM) | 2.1 (≈ 4.65 µM) | 0.32 (≈ 0.709 µM) | 0.53 (≈ 1.17 µM) | 0.41 (≈ 0.908 µM) | 0.33 (≈ 0.731 µM)
COc1cc(C2C3=C(COC3=O)N(CCc3ccc(F)cc3)c3cc4c(cc32)OCO4)cc(OC)c1O (stereo not drawn) [Compound 31, 6,7-Methylenedioxy-4-[2-(4-fluorophenyl)-ethyl]-9-(4-hydroxy-3,5-dimethoxy-phenyl)-4,9-dihydro-3H-furo[3,4-b]quinolin-1-one] |  |  |  |  |  |  |  |  | 0.48 (≈ 0.95 µM) | 0.21 (≈ 0.415 µM) |  | 0.34 (≈ 0.673 µM) | 1.4 (≈ 2.77 µM) | 0.38 (≈ 0.752 µM) | 0.36 (≈ 0.712 µM)
COc1cc(C2C3=C(COC3=O)N(Cc3ccco3)c3cc4c(cc32)OCO4)cc(OC)c1O (stereo not drawn) [Compound 32, 6,7-Methylenedioxy-4-(furan-2-ylmethyl)-9-(4-hydroxy-3,5-dimethoxy-phenyl)-4,9-dihydro-3H-furo[3,4-b]quinolin-1-one] |  |  |  |  |  |  |  |  | 0.061 (≈ 0.132 µM) | 0.89 (≈ 1.92 µM) |  | 0.054 (≈ 0.117 µM) | 1 (≈ 2.16 µM) | 0.39 (≈ 0.842 µM) | 0.24 (≈ 0.518 µM)
